Experimental data from PubChem BioAssay (NCI).
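These data come from cells grown in 96-well plates and exposed to compound for 48 hours at five concentrations. GI50: concentration for 50% inhibition of growth. TGI marks complete inhibition of growth.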

Experiments:
Test in all cases: inhibition of tumour cell growth, NCI panel, 48 h
TK-10 renal = system: TK-10 renal
786-0 renal = system: 786-0 renal
IGROV1 ovarian = system: IGROV1 ovarian
SF-539 CNS = system: SF-539 CNS
RPMI-8226 leukemia = system: RPMI-8226 leukemia
SNB-75 CNS = system: SNB-75 CNS
EKVX NSCLC = system: EKVX NSCLC
A498 renal = system: A498 renal
HL-60(TB) leukemia = system: HL-60(TB) leukemia
NCI-H226 lung = system: NCI-H226 lung

| SMILES | TGI (TK-10 renal) | TGI (786-0 renal) | TGI (IGROV1 ovarian) | TGI (SF-539 CNS) | TGI (RPMI-8226 leukemia) | TGI (SNB-75 CNS) | TGI (EKVX NSCLC) | TGI (A498 renal) | GI50 (TK-10 renal) | GI50 (786-0 renal) | GI50 (IGROV1 ovarian) | GI50 (SF-539 CNS) | GI50 (HL-60(TB) leukemia) | TGI (HL-60(TB) leukemia) | GI50 (RPMI-8226 leukemia) | GI50 (SNB-75 CNS) | GI50 (NCI-H226 lung) | TGI (NCI-H226 lung) | GI50 (EKVX NSCLC) | GI50 (A498 renal) |
| --- | --- | --- | --- | --- | --- | --- | --- | --- | --- | --- | --- | --- | --- | --- | --- | --- | --- | --- | --- | --- |
| O=C(N/C(=C\c1c(O)ccc2ccccc12)c1nc2ccccc2[nH]1)c1ccccc1 | > 100 µM | > 100 µM | > 100 µM | > 100 µM | > 100 µM | 45.6 µM | > 100 µM | > 100 µM | – | – | – | – | – | – | – | – | – | – | – | – |
| O=c1cc(-c2ccccc2)oc2ccc(OC/C(=N/O)c3ccc(F)cc3)cc12 | > 50 µM | > 50 µM | > 50 µM | 4.06 µM | 14.9 µM | > 50 µM | 15.8 µM | – | > 50 µM | 8.97 µM | 21.7 µM | 1.92 µM | 1.97 µM | 13.9 µM | 3 µM | 4.64 µM | 13.6 µM | > 50 µM | 1.97 µM | – |
| CCCCCCCCCCCC[N+](C)(C)Cc1ccccc1 | – | 6.15 µM | 3.66 µM | 3.17 µM | 3.31 µM | 3.53 µM | – | 24.8 µM | – | 2.37 µM | 1.43 µM | 1.66 µM | 1.02 µM | 2.85 µM | 1.28 µM | 1.45 µM | 2.84 µM | 18.6 µM | – | 8.06 µM |
| O=C(Nc1cc(Cl)ccc1Cl)c1cc2cccc(Br)c2oc1=O | > 100 µM | > 100 µM | > 100 µM | > 100 µM | > 100 µM | > 100 µM | > 100 µM | – | – | – | – | – | – | > 100 µM | – | – | – | > 100 µM | – | – |
| CSC(=Nc1ccccc1Cl)NC(=O)c1ccc(Br)cc1 | > 100 µM | 86.3 µM | > 100 µM | > 100 µM | > 100 µM | – | > 100 µM | – | – | – | – | – | – | > 100 µM | – | – | – | > 100 µM | – | – |
| COc1cc(O)c(C(=O)CC(C)=O)c(OC)c1 | > 100 µM | > 100 µM | > 100 µM | > 100 µM | > 100 µM | > 100 µM | > 100 µM | – | – | – | – | – | – | > 100 µM | – | – | – | > 100 µM | – | – |
| CCCN(CCC)CCc1cc(C(C)=O)n(S(=O)(=O)c2ccc(C)cc2)c1 | > 100 µM | > 100 µM | > 100 µM | > 100 µM | > 100 µM | > 100 µM | > 100 µM | > 100 µM | – | – | – | – | – | – | – | – | – | > 100 µM | – | – |
| CCNc1cc2oc(=O)cc(C(F)(F)F)c2cc1C | > 100 µM | > 100 µM | > 100 µM | > 100 µM | > 100 µM | > 100 µM | > 100 µM | > 100 µM | – | – | – | – | – | – | – | – | – | > 100 µM | – | – |
| O=C1NC(=O)[C@@]2(CC[C@@H](O)C2)c2ccncc21 | > 100 µM | > 100 µM | > 100 µM | > 100 µM | – | > 100 µM | > 100 µM | > 100 µM | – | – | – | – | – | > 100 µM | – | – | – | > 100 µM | – | – |
| Cc1cc2c(c3nocc13)C(=O)c1ccccc1C2=O | > 100 µM | > 100 µM | > 100 µM | > 100 µM | > 100 µM | > 100 µM | > 100 µM | – | – | – | – | – | – | > 100 µM | – | – | – | – | – | – |
| CCN(CC)CCCOc1ccc2ncnc(Nc3ccc(Oc4cccc(C(F)(F)F)c4)c(Cl)c3)c2c1 | 2.56 µM | 2.95 µM | – | 3.17 µM | – | 2.86 µM | 2.85 µM | 3.56 µM | 1.14 µM | 1.54 µM | – | 1.74 µM | – | – | – | 1.49 µM | – | – | 1.26 µM | 0.229 µM |
| C[C@]12CC[C@@H]3c4ccc(O)cc4CC[C@H]3[C@@H]1CC[C@@H]2NS(=O)(=O)c1cccc(Cl)c1 | 11.2 µM | 6.13 µM | 16.8 µM | 3.45 µM | 11.3 µM | 9.01 µM | – | 5.19 µM | 3.46 µM | 2.47 µM | 4.23 µM | 1.76 µM | – | – | 2.97 µM | 2.25 µM | 1.9 µM | 4.61 µM | – | 1.56 µM |
| CCOc1cc(C(=O)O)c2c(ccc3ccc(OC)c(OC)c32)c1OC | > 100 µM | > 100 µM | > 100 µM | – | > 100 µM | > 100 µM | > 100 µM | – | – | – | – | – | – | > 100 µM | – | – | – | > 100 µM | – | – |
| CN(C)CCNC(=O)c1cccc2nc3ccc4cccnc4c3nc12 | 0.688 µM | 10.9 µM | – | 1.1 µM | – | 1.84 µM | 2.07 µM | 0.845 µM | – | – | – | – | – | 2.91 µM | – | – | – | 1.83 µM | – | – |
| CC(=Nc1ccccc1)C1=C(O)C(Cc2cccc(F)c2)NC1=O (stereo not given) | > 100 µM | > 100 µM | > 100 µM | – | > 100 µM | – | – | 0.426 µM | 6.15 µM | 0.0857 µM | 0.0854 µM | 0.0374 µM | 0.0334 µM | – | 0.0525 µM | – | 5.25 µM | > 100 µM | – | 0.0356 µM |
| O=C1NC(=O)C(=Cc2c3ccccc3cc3ccccc23)C(=O)N1 | > 100 µM | > 100 µM | > 100 µM | > 100 µM | > 100 µM | – | – | > 100 µM | – | – | – | – | – | > 100 µM | – | – | – | – | – | – |
| CC(C)=O.O=C([O-])C(F)(F)F.O=C([O-])C(F)(F)F.O=C([O-])C(F)(F)F.O=C([O-])C(F)(F)F.[Rh+2].[Rh+2] | > 100 µM | > 100 µM | > 100 µM | > 100 µM | > 100 µM | > 100 µM | > 100 µM | – | 81.4 µM | 71.5 µM | > 100 µM | > 100 µM | – | – | 33.2 µM | 58.6 µM | > 100 µM | > 100 µM | 47.2 µM | – |
| COc1ccc(-c2nsc3c2NC(=O)CC3c2ccc3c(c2)OCCO3)cc1 (stereo not given) | > 100 µM | > 100 µM | > 100 µM | 6.71 µM | 42.4 µM | > 100 µM | – | 1.03 µM | 1.87 µM | 0.829 µM | 1.6 µM | 0.8 µM | 0.326 µM | 12.5 µM | 0.492 µM | 0.22 µM | 5.19 µM | > 26.6 µM | – | 0.212 µM |
| COc1ccc(OC)c(NC(=O)c2cccc(NC3=C(Cl)C(=O)N(Cc4ccccc4)C3=O)c2)c1 | > 100 µM | > 100 µM | > 100 µM | > 100 µM | > 79 µM | > 100 µM | 4.94 µM | – | > 59.5 µM | > 96.2 µM | > 100 µM | > 94.9 µM | 5.82 µM | > 100 µM | 15.9 µM | > 100 µM | > 67.3 µM | > 100 µM | 2.49 µM | – |
